# In PMC11930985 (Nature Communications, 2025):
# “And” between values parts separate entries of the source, which are not always exact repeats. Equal values may be shown once. Read-outs that look alike come from different tables or passages of the source.
# Key:
# [1] = Bemcentinib plasma PK (LC-MS/MS, population PK model); type: in vivo, human; details: for Cmax / AUC / half-life: human, plasma, oral; for Cmax: read-out: mean Cmax at steady state
# Experimental: Thereafter, a pre-dose sample was collected at all study visits ( > Cycle 3 up to and including Cycle 15) and at End of Study. PK samples were measured using a fully validated liquid chromatography with tandem mass spectrometry method for bemcentinib. […] The PopPK model was developed by evaluating various structural models including 1 compartment and 2 compartment models. Covariate analysis was performed using a forward addition and backward elimination procedure, from which a preliminary base model was selected. During covariate analysis, continuous covariates were centered on the median population values, and the most common or most relevant category was used as the reference value for categorical covariates. A visual predictive check (VPC) was conducted to verify that the final model adequately predicted both the central tendency and variability of the observed data across studies or by proton pump inhibitor use. Quantification of parameter uncertainty in the final model was assessed by nonparametric bootstrap analysis. Population PK analysis was performed using the nonlinear mixed effects modelling methodology as implemented in the NONMEM program Version 7.4.4[35]. Data postprocessing was performed using R (Version 3.6.1)[36]. Individual population PK model parameters were estimated using NONMEM with the following $ESTIMATION parameters: METHOD = COND INTERACTION […] = 0 […] = 3. These parameters were subsequently used to predict individual steady-state profiles with a dense PK sampling scheme using the SIMULATION method in NONMEM.
# [2] = molecular target: Flt4; set-up: method as in Investigator's Brochure (IB) version 5.0; details: ref Investigator's Brochure (IB) version 5.0; cited from earlier work
smiles,measurement,setting,value
Nc1nc(Nc2ccc3c(c2)CC[C@@H](N2CCCC2)CC3)nn1-c1cc2c(nn1)-c1ccccc1CCC2 [Bemcentinib],mean Ctrough at steady state,"[1]; DE cohort, maintenance 100 mg daily",136 ± 109 ng/mL
same,mean Ctrough at steady state,"[1]; DE cohort, maintenance 300 mg daily",382 ± 193 ng/mL
same,bemcentinib concentration,"[1]; Figure 4, individual patients, concentration paired with maximum pAXL(Y779) inhibition",358 ng/mL and 79 ng/mL and 276 ng/mL and 103 ng/mL and 178 ng/mL and 74 ng/mL and 173 ng/mL and 0 ng/mL and 122 ng/mL and 105 ng/mL and 73.3 ng/mL and 6.36 ng/mL
same,mean Ctrough at steady state,"[1]; LDAC cohort, maintenance 200 mg daily",196 ± 124 ng/mL
same,bemcentinib concentration,"[1]; Supplementary Figure 1b, individual patients, concentration paired with maximum pSTAT5 (Y694) inhibition",358 ng/mL and 145 ng/mL and 276 ng/mL and 103 ng/mL and 124 ng/mL and 74 ng/mL and 118 ng/mL and 0 ng/mL and 81.5 ng/mL and 112 ng/mL and 270 ng/mL
same,bemcentinib concentration,"[1]; Supplementary Figure 1c, individual patients, concentration paired with maximum pERK1/2 (T202/Y204) inhibition",358 ng/mL and 78.9 ng/mL and 276 ng/mL and 134 ng/mL and 130 ng/mL and 74.6 ng/mL and 118 ng/mL and 0 ng/mL and 98 ng/mL and 94 ng/mL and 73.4 ng/mL and 270 ng/mL
same,bemcentinib concentration,"[1]; Supplementary Figure 1d, individual patients, concentration paired with maximum pAKT (S473) inhibition",408 ng/mL and 78.9 ng/mL and 276 ng/mL and 103 ng/mL and 130 ng/mL and 74 ng/mL and 225 ng/mL and 0 ng/mL and 81.5 ng/mL and 183 ng/mL and 73.4 ng/mL and 270 ng/mL
same,Cmax,"[1]; 100 mg, DE cohort, maintenance 100 mg daily, 10 patients",140 ± 110 ng/mL
same,AUC,"[1]; 100 mg, DE cohort, maintenance 100 mg daily, read-out: AUC",3310 ± 2630 ng·h/mL
same,half-life,"[1]; 200 mg daily, LDAC cohort, read-out: median t1/2 (converted)",124 h
same,Cmax,"[1]; 200 mg, DE cohort, maintenance 200 mg daily, 21 patients",162 ± 121 ng/mL
same,AUC,"[1]; 200 mg, DE cohort, maintenance 200 mg daily, read-out: AUC",3810 ± 2860 ng·h/mL
same,Cmax,"[1]; 200 mg, LDAC cohort, maintenance 200 mg daily, 35 patients",210 ± 128 ng/mL
same,AUC,"[1]; 200 mg, LDAC cohort, maintenance 200 mg daily, read-out: mean AUC",4890 ± 3020 ng·h/mL
same,Cmax,"[1]; 300 mg, DE cohort, maintenance 300 mg daily, 5 patients",398 ± 200 ng/mL
same,AUC,"[1]; 300 mg, DE cohort, maintenance 300 mg daily, read-out: AUC",9390 ± 4720 ng·h/mL
same,half-life,"[1]; DE cohort, maintenance 100 mg daily, read-out: median half-life (t1/2) (converted)",159 h
same,half-life,"[1]; DE cohort, maintenance 200 mg daily, read-out: median half-life (t1/2) (converted)",124 h
same,half-life,"[1]; DE cohort, maintenance 300 mg daily, read-out: median half-life (t1/2) (converted)",156 h
same,Kd,[2],460 nM
